Data taken from patent US10160771B2, “Hepatitis C virus inhibitors and uses thereof in preparation of drugs” (priority 2014, dated 2018).

Assays:
[1] = Cell Titer-fluor cell activity assay in HCV-1b replicon cells (CC50); assay type: cell-based
Summary of the method: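 CC50 derived by nonlinear fitting of inhibition % from Cell Titer-fluor signal (405/515 nm, 30 min). Cells: genotype 1b Con1 replicon carrying E1202G, T1280I, K1846T, seeded 8000/well with compound for 3 days, 37 °C, 0.5% DMSO; 6 points, 5-fold dilution, top 100, 10 or 1 nM, duplicates.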

[2] = test system: HCV genotype 1b (HCV-1b) replicon cells; test: HCV genotype 1b replicon luciferase assay (EC50); assay type: cell-based, hepatitis C virus genotype 1b (Con1 clone); details: Hepatitis C virus, 72 h, 3 days, luciferase (Bright-Glo)
Summary of the method: (§1)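 EC50 by nonlinear fitting of % inhibition from Bright-Glo luciferase signal after 3-day, 37° C. compound exposure (5-fold, 6 points from 100, 10 or 1 nM; 0.5% DMSO; duplicates). Cells: 1a replicon from H77 (K1691R/K2040R/S2204I) or 1b from Con1 (E1202G/T1280I/K1846T), 8000 per well.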

[3] = test system: HCV genotype 1a (HCV-1a) replicon cells; test: HCV genotype 1a replicon luciferase assay (EC50); assay type: cell-based, hepatitis C virus genotype 1a (H77 clone); details: Hepatitis C virus, 72 h, 3 days, luciferase (Bright-Glo)
Summary of the method: as §1

| SMILES | CC50 at 3 days [1] | EC50 [2] | EC50 [3] |
| --- | --- | --- | --- |
| COC(=O)N[C@H](C(=O)N1CCC[C@H]1c1ncc(-c2ccc(-c3ccc(-c4cnc([C@@H]5C6CCC(C6)[C@H]5C(=O)NCc5ccco5)[nH]4)cc3)cc2)[nH]1)C(C)C (stereo partly drawn) [AA_198_B] | > 1 nM | 0.001 to 0.1 nM | 10 to 100 nM |
| COC(=O)N[C@H](C(=O)N1CCC[C@H]1c1ncc(-c2ccc(-c3ccc(-c4cnc([C@H]5C6CCC(C6)[C@@H]5C(=O)NCc5cccc(N)c5)[nH]4)cc3)cc2)[nH]1)C(C)C (stereo partly drawn) [AA_199_A] | > 1 nM | 0.001 to 0.1 nM | 1 to 10 nM |
| COC(=O)N[C@H](C(=O)N1CCC[C@H]1c1ncc(-c2ccc(-c3ccc(-c4cnc([C@@H]5C6CCC(C6)[C@H]5C(=O)NCc5cccc(N)c5)[nH]4)cc3)cc2)[nH]1)C(C)C (stereo partly drawn) [AA_199_B] | > 1 nM | 0.001 to 0.1 nM | 10 to 100 nM |
| COC(=O)N[C@H](C(=O)N1CCC[C@H]1c1ncc(-c2ccc(-c3ccc(-c4cnc([C@H]5C6CCC(C6)[C@@H]5C(=O)NCc5ccc(OC)nc5)[nH]4)cc3)cc2)[nH]1)C(C)C (stereo partly drawn) [AA_200_A] | > 1 nM | 0.001 to 0.1 nM | 1 to 10 nM |
| COC(=O)N[C@H](C(=O)N1CCC[C@H]1c1ncc(-c2ccc(-c3ccc(-c4cnc([C@@H]5C6CCC(C6)[C@H]5C(=O)NCc5ccc(OC)nc5)[nH]4)cc3)cc2)[nH]1)C(C)C (stereo partly drawn) [AA_200_B] | > 1 nM | 0.001 to 0.1 nM | 1 to 10 nM |
| COC(=O)N[C@H](C(=O)N1CCC[C@H]1c1ncc(-c2ccc(-c3ccc(-c4cnc([C@H]5C6CCC(C6)[C@@H]5C(=O)NCc5cncnc5)[nH]4)cc3)cc2)[nH]1)C(C)C (stereo partly drawn) [AA_201_A] | > 1 nM | 0.001 to 0.1 nM | 0.101 to 1 nM |
| COC(=O)N[C@H](C(=O)N1CCC[C@H]1c1ncc(-c2ccc(-c3ccc(-c4cnc([C@@H]5C6CCC(C6)[C@H]5C(=O)NCc5cncnc5)[nH]4)cc3)cc2)[nH]1)C(C)C (stereo partly drawn) [AA_201_B] | > 1 nM | 0.001 to 0.1 nM | 1 to 10 nM |
| COC(=O)N[C@H](C(=O)N1CCC[C@H]1c1ncc(-c2ccc(-c3ccc(-c4cnc([C@@H]5[C@H]6CC[C@H](C6)[C@H]5C(=O)NCc5cncnc5)[nH]4)cc3)cc2)[nH]1)C(C)C [AA_201_ENDOA2] | > 1 nM | 0.001 to 0.1 nM | 0.101 to 1 nM |
| COC(=O)N[C@H](C(=O)N1CCC[C@H]1c1ncc(-c2ccc(-c3ccc(-c4cnc([C@H]5C6CCC(C6)[C@@H]5C(=O)NCCc5ccccn5)[nH]4)cc3)cc2)[nH]1)C(C)C (stereo partly drawn) [AA_202] | > 1 nM | 0.001 to 0.1 nM | 1 to 10 nM |
| COC(=O)N[C@H](C(=O)N1CCC[C@H]1c1ncc(-c2ccc(-c3ccc(-c4cnc([C@H]5C6CCC(C6)[C@@H]5C(=O)NCc5cccnc5OC)[nH]4)cc3)cc2)[nH]1)C(C)C (stereo partly drawn) [AA_203_A] | > 1 nM | 0.001 to 0.1 nM | 1 to 10 nM |
| COC(=O)N[C@H](C(=O)N1CCC[C@H]1c1ncc(-c2ccc(-c3ccc(-c4cnc([C@@H]5C6CCC(C6)[C@H]5C(=O)NCc5cccnc5OC)[nH]4)cc3)cc2)[nH]1)C(C)C (stereo partly drawn) [AA_203_B] | > 1 nM | 0.001 to 0.1 nM | 1 to 10 nM |
| COC(=O)N[C@H](C(=O)N1CCC[C@H]1c1ncc(-c2ccc(-c3ccc(-c4cnc([C@@H]5C6CCC(C6)[C@H]5C(=O)NC(C)c5cccnc5)[nH]4)cc3)cc2)[nH]1)C(C)C (stereo partly drawn) [AA_204_B] | > 1 nM | 0.001 to 0.1 nM | 1 to 10 nM |
| COC(=O)N[C@H](C(=O)N1CCC[C@H]1c1ncc(-c2ccc(-c3ccc(-c4cnc([C@@H]5[C@H]6CC[C@H](C6)[C@H]5C(=O)N[C@@H](C)c5cccnc5)[nH]4)cc3)cc2)[nH]1)C(C)C [AA_204_ENDOA2_A] | > 1 nM | 0.001 to 0.1 nM | 0.001 to 0.1 nM |
| COC(=O)N[C@H](C(=O)N1CCC[C@H]1c1ncc(-c2ccc(-c3ccc(-c4cnc([C@@H]5[C@H]6CC[C@H](C6)[C@H]5C(=O)N[C@H](C)c5cccnc5)[nH]4)cc3)cc2)[nH]1)C(C)C [AA_204_ENDOA2_B] | > 1 nM | 0.001 to 0.1 nM | 1 to 10 nM |
| COC(=O)N[C@H](C(=O)N1CCC[C@H]1c1ncc(-c2ccc(-c3ccc(-c4cnc([C@H]5C6CCC(C6)[C@@H]5C(=O)NCc5cnccn5)[nH]4)cc3)cc2)[nH]1)C(C)C (stereo partly drawn) [AA_206_A] | > 1 nM | 0.001 to 0.1 nM | 0.101 to 1 nM |
| COC(=O)N[C@H](C(=O)N1CCC[C@H]1c1ncc(-c2ccc(-c3ccc(-c4cnc([C@@H]5C6CCC(C6)[C@H]5C(=O)NCc5cnccn5)[nH]4)cc3)cc2)[nH]1)C(C)C (stereo partly drawn) [AA_206_B] | > 1 nM | 0.001 to 0.1 nM | 1 to 10 nM |
| COC(=O)N[C@H](C(=O)N1CCC[C@H]1c1ncc(-c2ccc(-c3ccc(-c4cnc(C5[C@H]6CC[C@H](C6)[C@H]5C(=O)NCc5cnccn5)[nH]4)cc3)cc2)[nH]1)C(C)C (stereo partly drawn) [AA_206_ENDOA2] | > 1 nM | 0.001 to 0.1 nM | 0.101 to 1 nM |

| SMILES | CC50 at 3 days [1] | EC50 [2] | EC50 [3] |
| --- | --- | --- | --- |
| COC(=O)N[C@H](C(=O)N1CCC[C@H]1c1ncc(-c2ccc(-c3ccc(-c4cnc([C@H]5C6CCC(C6)[C@@H]5C(=O)NCc5ccccc5)[nH]4)cc3)cc2)[nH]1)C(C)C (stereo partly drawn) [AA_207_A] | > 1 nM | 0.001 to 0.1 nM | 1 to 10 nM |
| COC(=O)N[C@H](C(=O)N1CCC[C@H]1c1ncc(-c2ccc(-c3ccc(-c4cnc([C@@H]5C6CCC(C6)[C@H]5C(=O)NCc5ccccc5)[nH]4)cc3)cc2)[nH]1)C(C)C (stereo partly drawn) [AA_207_B] | > 1 nM | 0.001 to 0.1 nM | 10 to 100 nM |
| COC(=O)N[C@H](C(=O)N1CCC[C@H]1c1ncc(-c2ccc(-c3ccc(-c4cnc([C@H]5C6CCC(C6)[C@@H]5C(=O)NCc5nccs5)[nH]4)cc3)cc2)[nH]1)C(C)C (stereo partly drawn) [AA_208_A] | > 1 nM | 0.001 to 0.1 nM | 1 to 10 nM |
| COC(=O)N[C@H](C(=O)N1CCC[C@H]1c1ncc(-c2ccc(-c3ccc(-c4cnc([C@@H]5C6CCC(C6)[C@H]5C(=O)NCc5nccs5)[nH]4)cc3)cc2)[nH]1)C(C)C (stereo partly drawn) [AA_208_B] | > 1 nM | 0.001 to 0.1 nM | 1 to 10 nM |
| COC(=O)N[C@H](C(=O)N1CCC[C@H]1c1ncc(-c2ccc(-c3ccc(-c4cnc([C@@H]5[C@H]6CC[C@H](C6)[C@H]5C(=O)NCc5nccs5)[nH]4)cc3)cc2)[nH]1)C(C)C [AA_208_ENDOA2] | > 1 nM | 0.001 to 0.1 nM | 0.101 to 1 nM |
| COC(=O)N[C@H](C(=O)N1CCC[C@H]1c1ncc(-c2ccc(-c3ccc(-c4cnc([C@H]5C6CCC(C6)[C@@H]5C(=O)NCCc5ccncc5)[nH]4)cc3)cc2)[nH]1)C(C)C (stereo partly drawn) [AA_209_A] | > 1 nM | 0.001 to 0.1 nM | 10 to 100 nM |
| COC(=O)N[C@H](C(=O)N1CCC[C@H]1c1ncc(-c2ccc(-c3ccc(-c4cnc([C@@H]5C6CCC(C6)[C@H]5C(=O)NCCc5ccncc5)[nH]4)cc3)cc2)[nH]1)C(C)C (stereo partly drawn) [AA_209_B] | > 1 nM | 0.101 to 1 nM | 10 to 100 nM |
| COC(=O)N[C@H](C(=O)N1CCC[C@H]1c1ncc(-c2ccc(-c3ccc(-c4cnc([C@H]5C6CCC(C6)[C@@H]5C(=O)NCc5ccc(N)cc5)[nH]4)cc3)cc2)[nH]1)C(C)C (stereo partly drawn) [AA_210_A] | > 1 nM | 0.001 to 0.1 nM | 10 to 100 nM |
| COC(=O)N[C@H](C(=O)N1CCC[C@H]1c1ncc(-c2ccc(-c3ccc(-c4cnc([C@@H]5C6CCC(C6)[C@H]5C(=O)NCc5ccc(N)cc5)[nH]4)cc3)cc2)[nH]1)C(C)C (stereo partly drawn) [AA_210_B] | > 1 nM | 0.001 to 0.1 nM | 10 to 100 nM |
| COC(=O)N[C@H](C(=O)N1CCC[C@H]1c1ncc(-c2ccc(-c3ccc(-c4cnc([C@H]5C6CCC(C6)[C@@H]5C(=O)NCc5cccnc5)[nH]4)cc3)cc2C)[nH]1)C(C)C (stereo partly drawn) [AA_211_A] | > 1 nM | 0.001 to 0.1 nM | 1 to 10 nM |
| COC(=O)N[C@H](C(=O)N1CCC[C@H]1c1ncc(-c2ccc(-c3ccc(-c4cnc([C@@H]5C6CCC(C6)[C@H]5C(=O)NCc5cccnc5)[nH]4)cc3)cc2C)[nH]1)C(C)C (stereo partly drawn) [AA_211_B] | > 1 nM | 0.001 to 0.1 nM | 1 to 10 nM |
| CCOC(=O)C(NC(=O)[C@H]1C2CCC(C2)[C@@H]1c1ncc(-c2ccc(-c3ccc(-c4cnc([C@@H]5CCCN5C(=O)[C@@H](NC(=O)OC)C(C)C)[nH]4)cc3)cc2)[nH]1)c1cccnc1 (stereo partly drawn) [AA_213] | > 1 nM | 0.001 to 0.1 nM | 1 to 10 nM |
| COC(=O)N[C@H](C(=O)N1CCC[C@H]1c1ncc(-c2ccc(-c3ccc(-c4cnc([C@H]5C6CCC(C6)[C@@H]5C(=O)NCc5ccc(F)nc5)[nH]4)cc3)cc2)[nH]1)C(C)C (stereo partly drawn) [AA_214_A] | > 1 nM | 0.001 to 0.1 nM | 1 to 10 nM |
| COC(=O)N[C@H](C(=O)N1CCC[C@H]1c1ncc(-c2ccc(-c3ccc(-c4cnc([C@@H]5C6CCC(C6)[C@H]5C(=O)NCc5ccc(F)nc5)[nH]4)cc3)cc2)[nH]1)C(C)C (stereo partly drawn) [AA_214_B] | > 1 nM | 0.001 to 0.1 nM | 10 to 100 nM |
| COC(=O)N[C@H](C(=O)N1CCC[C@H]1c1ncc(-c2ccc(-c3ccc(-c4cnc([C@H]5C6CCC(C6)[C@@H]5C(=O)NCc5cccnc5C(C)C)[nH]4)cc3)cc2)[nH]1)C(C)C (stereo partly drawn) [AA_215_A] | > 1 nM | 0.001 to 0.1 nM | 10 to 100 nM |
| COC(=O)N[C@H](C(=O)N1CCC[C@H]1c1ncc(-c2ccc(-c3ccc(-c4cnc([C@@H]5C6CCC(C6)[C@H]5C(=O)NCc5cccnc5C(C)C)[nH]4)cc3)cc2)[nH]1)C(C)C (stereo partly drawn) [AA_215_B] | > 1 nM | 0.001 to 0.1 nM | 10 to 100 nM |
